This note sets out measurements from ChEMBL document CHEMBL1144633, “Affinity-based ranking of ligands for DPP-4 from mixtures” (Bioorg Med Chem Lett, 2007).

The test has as its target Dipeptidyl peptidase 4 (Homo sapiens, UniProt P27487). The test can be described thus: Inhibition of DPP4.

SMILES strings stand for the structures.

Dipeptidyl peptidase 4, sequence (P27487 whole entry): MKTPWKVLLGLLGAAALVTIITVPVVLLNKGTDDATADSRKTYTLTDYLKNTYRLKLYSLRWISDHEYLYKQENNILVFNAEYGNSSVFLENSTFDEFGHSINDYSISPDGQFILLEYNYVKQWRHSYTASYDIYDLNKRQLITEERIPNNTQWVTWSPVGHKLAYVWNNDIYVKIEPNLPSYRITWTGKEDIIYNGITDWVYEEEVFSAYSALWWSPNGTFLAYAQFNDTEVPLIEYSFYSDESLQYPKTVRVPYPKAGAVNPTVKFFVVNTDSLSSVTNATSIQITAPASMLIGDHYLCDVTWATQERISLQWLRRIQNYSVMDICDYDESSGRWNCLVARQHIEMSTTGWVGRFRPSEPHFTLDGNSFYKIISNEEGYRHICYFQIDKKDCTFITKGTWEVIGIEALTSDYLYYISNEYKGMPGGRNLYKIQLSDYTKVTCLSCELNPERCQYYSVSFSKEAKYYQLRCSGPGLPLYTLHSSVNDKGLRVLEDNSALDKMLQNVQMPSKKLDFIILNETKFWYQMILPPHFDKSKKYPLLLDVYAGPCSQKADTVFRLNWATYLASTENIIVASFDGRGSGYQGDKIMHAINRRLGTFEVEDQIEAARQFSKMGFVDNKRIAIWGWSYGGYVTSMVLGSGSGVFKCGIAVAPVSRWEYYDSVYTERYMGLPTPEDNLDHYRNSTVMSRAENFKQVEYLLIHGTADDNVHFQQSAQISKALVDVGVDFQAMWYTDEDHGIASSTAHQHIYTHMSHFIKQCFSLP

Take `N[C@@H](CC(=O)N1CCn2nccc21)Cc1cc(F)ccc1F`: the IC50 (commonly the concentration that gives 50% inhibition) was determined as 1320 nM. This lies in the single-digit micromolar range. Under `N[C@@H](CC(=O)N1CCn2cc(C(F)(F)F)nc2C1c1ccc(F)cc1)Cc1ccc(F)c(F)c1` (stereo partly specified) stands 1400 nM; under `COc1cc(CNC(=O)[C@@H]2CCCN2C(=O)C[C@H](N)Cc2ccccc2F)ccc1O`, 864 nM. `CC(C)[C@H](Oc1ccc(CNC(=O)[C@@H]2CCCN2C(=O)C[C@H](N)Cc2cc(F)c(F)c(F)c2F)cc1)C(=O)O` returned an IC50 of 8 nM. `C=CCC(C(=O)N1CCn2c(nnc2C(F)(F)F)C1)[C@H](N)Cc1cc(F)c(F)cc1F` (stereo partly specified) gave a half-inhibitory concentration (IC50) of 2000 nM.

With `N[C@@H](CC(=O)N1CCC[C@H]1C(=O)NCc1ccc(C(F)(F)F)cc1)Cc1ccccc1F`, half-maximal inhibition (IC50) was put at 731 nM. As to `N[C@@H](CC(=O)N1CCN(c2ccc(Cl)cc2)CC1)Cc1ccccc1F`, the IC50 amounted to 1250 nM.

In turn, `CSc1cc(F)c(C[C@@H](N)CC(=O)N2CCn3c(nnc3C(F)(F)F)C2)cc1F` returned an IC50 of 780 nM. In the case of `C=COCC(=O)N1CCN(C(=O)C[C@H](N)Cc2ccccc2F)CC1`, the IC50 came out at 2210 nM. Then `N[C@H](C(=O)N1CCC(F)(F)C1)[C@@H]1CCN(S(=O)(=O)c2ccc(OC(F)(F)F)cc2)C1`, with 995 nM; and `O=C([C@@H]1Cc2ccc(-c3cccc(-c4nnn[nH]4)c3)cc2CN1)N1CC[C@H](F)C1`, with 310 nM.
